Results reported in patent EP3363912B1, “SELF-CALIBRATED ASSAY FOR DETERMINING PROTEOLYTIC ENZYME GENERATION, DEDICATED MEANS AND USES THEREOF” (Synapse B.V., priority 2017, dated 2018).
Values belong to the molecule of their own block, whether it stands above or below them. Where a SMILES comes first, the peptide text is derived from it. The star is where a group is joined. AMC = Cc1cc(=O)oc2cc(N*)ccc12; Boc = CC(C)(C)OC(=O)*

Legend:
Format in all cases: biochemical
[1] = target: T1, plasmin-α2-macroglobulin complex (Homo sapiens, UniProt P00747); assay: Plasmin generation experiment on paper, calibrator curve with plasmin-α2-macroglobulin complex; details: substrate 300 µM with 8 µM AMC added, constant E 100 nM
T1 construct: thrombin and plasmin can be reacted with the plasma-derived protein α2-macroglobulin; made in house
Method: Stock solutions: SC-FII, prepared in house 1µM; Plasmin-α2macroglobulin complex, prepared in house 1 µM; rec Human recombinant tissue factor (TF) (Innovin; Siemens) 6µM. Phospholipids (PS:PC:PE, 2:6:2) prepared in house 1 mM, Human recombinant tissue plasminogen activator (tPA), (Alteplase Boehringer Ingelheim) 36 klU, Final concentrations used: SC-FII, 100 nM, Plasmin-α2macroglobulin 100 nM: tPA 300 IU. Substrate 300 µM,
To 40 µL of plasma was added 20 µL of the substrate solution (1,35 mM in BSA 60 buffer) so as to obtain a concentration of 450 µM.
To 40 µL of this mixture were added 20 µL of the activation mixture containing the indicated concentration of Ca^++, TF, PI, tPA in BSA 5 buffer. 5 µL of this of this solution was transferred to three 6 mm diameter paper rounds at the (flat) bottom of a 96-well plate. […] The plate was read in a Fluoroscan Ascent fluorometer at 37°C. Samples were measured every 10s at 390-460 nm for 50 minutes.
A plasmin generation experiment was carried out as described in the methods section with Boc-Glu-Lys-Lys-AMC (300 µM) as a substrate to which 8 µM AMC was added. […] We simultaneously recorded a fluorescence curve from plasmin-α2-macroglobulin complex, equivalent to 100 nM plasmin. From this curve, run to completion we found Fmax to be 1778 AU, whereas F0 as measured during the lag-times, was 49,2 AUs.

thrombin = target: T2, thrombin (Homo sapiens, UniProt P00734); assay: Standard thrombin generation experiment in plasma, ratio method (kinetic constants of substrate conversion); details: substrate at 108 and 416 µM with 1 µM AMC added, 5 pM tissue factor, 37°C
T2 construct: from tissue; host or cells: plasma
Method: Plasma in solution: The TG experiments in the examples are variations on the standard experiment in which thrombin generation in plasma is measured in a 96-wells polystyrene microplate (Thermo Electron Corporation, Milford, MA, USA). All wells contained 80 µl plasma and 20 µl of a solution containing 0.5 - 5 pM tissue factor (TF) and 4 µM phospholipids (PL). To calibrator wells, 20 µl of calibrator was added instead so as to obtain the equivalent of 100 nM thrombin activity. Thrombin generation (TG) was initiated by the addition of 20 µl of substrate (standard: Z-Gly-Gly-Arg-AMC, 417 µM) and CaCl2 (16.6 mM).
• A. Addition of 80 µl plasma to each well • B. Addition of 20 µl TF/phospholipids mix or 20 µl calibrator to each well • C. Pre-heating of the plate for 10 min at 37°C • D. Addition of 20 µl FluCa kept at 37°C prior to the addition of the reaction mixture. • E. Immediate kinetic measurement of fluorescence in time (exc 390 nm / em 460 nm)
A standard thrombin generation experiment with 5 pM tissue factor was carried out, using Z-Gly-Gly-Arg-AMC as a substrate at the concentrations 108- and 416 bµM with 1µM of AMC added. Fom the fluorescence data the normalized ratio was calculated as Rt=(Fexp.t-F0)/(Fmax-F0) (dashed lines).

[2] = target: T3, staphylocoagulase-thrombin (Homo sapiens, UniProt P00734); assay: Conversion of a substrate concentration series by staphylocoagulase-thrombin in 1:2 diluted normal plasma on filter paper
T3 construct: Antithrombin-resistant thrombin activity can also be obtained reacting prothrombin with the protein staphylocoagulase; made in house
Excerpt: Surface fluorescence in plasma and in whole blood has been essentially measured in the same way as published by Ninnivagi and Apitz for whole blood (Ninivaggi M, Apitz-Castro R, Dargaud Y, de Laat B, Hemker HC, Lindhout T. Whole blood thrombin generation monitored with a calibrated automated thrombogram-based assay. Clin.Chem. 2012,58:1252-1259) or in WO2006/117246. Paper discs of 5.5 mm diameter and 180 µm thickness (Whatman 589/1, Whatman GmbH, Dassel, Germany) were placed in flat bottom wells of a 96-wells polystyrene microplate (Thermo Electron Corporation, Milford, MA, USA).
• A. Preparation of paper matrices and placement into a flat-bottom 96 wells plate • B. Addition of the fluorogenic substrate solution to the plasma or to whole blood • C. Pre-heating of the reagents and whole blood for 2 min at 37°C • D. Mixing of the whole blood and the trigger mix or calibrator 1:1 • E. Pipetting 5 µL reaction mix onto the paper matrix • F. Pipetting 40 µL of mineral oil onto the paper matrix • G. Immediate measurement of fluorescence in time (exc 485 nm / em 538 nm)
In 1:2 diluted normal plasma adsorbed on filter paper a concentration series of mPEG-Gly-Pro-Arg-RhoAc (75, 150, 225, 300, 450 and 600 µM) was converted by 100 nM of staphylocoagulase-thrombin and the resulting fluorescence recorded as further described under materials and methods. […]

T1 sequence (P00747 581-810 limits assumed): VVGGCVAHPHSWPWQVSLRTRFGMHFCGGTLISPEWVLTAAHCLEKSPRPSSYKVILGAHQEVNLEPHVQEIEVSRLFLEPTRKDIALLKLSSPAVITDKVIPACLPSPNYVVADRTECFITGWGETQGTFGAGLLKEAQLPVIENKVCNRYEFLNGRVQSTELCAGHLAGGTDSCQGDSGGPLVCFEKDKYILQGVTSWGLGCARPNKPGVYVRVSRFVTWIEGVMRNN
T1 sequence (P00747 97-580 limits assumed): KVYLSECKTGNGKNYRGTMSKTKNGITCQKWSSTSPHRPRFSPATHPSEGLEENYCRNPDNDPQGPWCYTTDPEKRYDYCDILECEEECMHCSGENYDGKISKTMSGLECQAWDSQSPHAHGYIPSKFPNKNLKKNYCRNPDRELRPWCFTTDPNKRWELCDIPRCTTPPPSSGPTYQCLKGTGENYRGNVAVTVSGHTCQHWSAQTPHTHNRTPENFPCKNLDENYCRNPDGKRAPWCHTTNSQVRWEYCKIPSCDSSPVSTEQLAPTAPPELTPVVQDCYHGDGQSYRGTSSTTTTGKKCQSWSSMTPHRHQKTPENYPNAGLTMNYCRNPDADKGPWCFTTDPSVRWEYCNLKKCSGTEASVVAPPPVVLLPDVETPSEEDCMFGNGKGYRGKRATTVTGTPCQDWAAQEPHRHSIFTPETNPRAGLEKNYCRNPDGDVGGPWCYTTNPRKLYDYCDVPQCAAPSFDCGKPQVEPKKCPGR
T1 sequence (P01023 24-1474 partner): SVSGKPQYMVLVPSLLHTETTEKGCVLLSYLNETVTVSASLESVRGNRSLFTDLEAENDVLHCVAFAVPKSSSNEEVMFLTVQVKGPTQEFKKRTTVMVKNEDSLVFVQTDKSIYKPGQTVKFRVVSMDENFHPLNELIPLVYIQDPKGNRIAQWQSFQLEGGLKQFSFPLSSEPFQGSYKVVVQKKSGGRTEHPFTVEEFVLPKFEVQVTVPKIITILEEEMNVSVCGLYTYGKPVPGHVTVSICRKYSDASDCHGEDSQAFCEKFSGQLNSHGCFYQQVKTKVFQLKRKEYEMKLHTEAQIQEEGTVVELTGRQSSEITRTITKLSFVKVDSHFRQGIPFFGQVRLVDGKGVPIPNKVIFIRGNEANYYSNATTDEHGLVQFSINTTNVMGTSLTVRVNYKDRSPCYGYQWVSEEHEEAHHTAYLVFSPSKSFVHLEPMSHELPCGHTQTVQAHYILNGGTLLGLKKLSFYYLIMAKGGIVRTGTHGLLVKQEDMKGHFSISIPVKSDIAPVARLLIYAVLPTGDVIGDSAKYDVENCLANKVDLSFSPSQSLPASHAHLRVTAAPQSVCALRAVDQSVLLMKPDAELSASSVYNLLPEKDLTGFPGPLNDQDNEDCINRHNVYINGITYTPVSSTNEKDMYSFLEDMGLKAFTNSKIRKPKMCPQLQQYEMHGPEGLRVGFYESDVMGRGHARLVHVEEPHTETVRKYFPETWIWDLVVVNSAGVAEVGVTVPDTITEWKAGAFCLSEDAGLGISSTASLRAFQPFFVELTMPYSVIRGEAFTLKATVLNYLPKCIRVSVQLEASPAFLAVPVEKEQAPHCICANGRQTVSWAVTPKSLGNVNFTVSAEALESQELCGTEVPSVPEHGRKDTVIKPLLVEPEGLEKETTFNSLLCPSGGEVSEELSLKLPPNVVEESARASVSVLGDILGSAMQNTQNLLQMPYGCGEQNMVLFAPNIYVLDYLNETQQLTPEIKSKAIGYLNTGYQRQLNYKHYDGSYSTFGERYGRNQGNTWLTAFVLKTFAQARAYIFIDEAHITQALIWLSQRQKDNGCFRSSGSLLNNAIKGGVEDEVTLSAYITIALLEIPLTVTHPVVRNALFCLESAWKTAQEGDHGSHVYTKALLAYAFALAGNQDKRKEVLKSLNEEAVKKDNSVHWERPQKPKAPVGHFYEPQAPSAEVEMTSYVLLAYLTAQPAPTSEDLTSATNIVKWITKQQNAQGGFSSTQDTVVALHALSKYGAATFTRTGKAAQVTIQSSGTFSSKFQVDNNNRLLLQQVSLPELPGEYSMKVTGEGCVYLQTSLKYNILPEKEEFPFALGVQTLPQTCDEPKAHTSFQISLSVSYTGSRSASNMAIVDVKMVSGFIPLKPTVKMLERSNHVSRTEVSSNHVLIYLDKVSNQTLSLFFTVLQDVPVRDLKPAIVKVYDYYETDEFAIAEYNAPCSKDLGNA

Km/kcat [1]: 8660 nM·min
Molecule: Cc1cc(=O)oc2cc(NC(=O)[C@H](CCCCN)NC(=O)[C@H](CCCCN)NC(=O)[C@H](CCC(=O)O)NC(=O)OC(C)(C)C)ccc12 [Boc-Glu-Lys-Lys-AMC, ButylOxyCarbonyl-Glu-Lys-Lys-AMC] (Boc-Glu-Lys-Lys-{AMC})

Km (thrombin): 900 µM
kcat (thrombin): 1.9 s⁻¹
Molecule: Cc1cc(=O)oc2cc(NC(=O)C(CCCNC(=N)N)NC(=O)CNC(=O)CNC(=O)OCc3ccccc3)ccc12 (stereo not drawn) [Z-Gly-Gly-Arg-AMC]

Molecule: mPEG-Gly-Pro-Arg-RhoAc
Km/kcat ([2]; enzyme concentration 100 nM, any substrate concentration ≤ 600 µM): 11,36 µM.min
Km ([2]; substrate 75-600 µM, 100 nM staphylocoagulase-thrombin, inferred from reaction velocity proportional to substrate concentration): > 600 µM
